The values that follow are results of earlier work, collected in PMC5019575 (European journal of inorganic chemistry, 2015).

One series concerns the target T1, di-Fe^III-DF3 (synthetic construct, UniProt Z9XD63LK24).
T1 sequence (Z9XD63LK24 2-49): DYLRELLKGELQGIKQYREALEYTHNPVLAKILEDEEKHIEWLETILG
As to the kind of experiment: initial rates of oxidation, Lineweaver-Burk. The class given is biochemical. The conditions noted are these: O2 (air), diferric protein, 100 mM HEPES/100 mM NaCl pH 7.0.

For another series, the system named is G4-DFtet. The conditions noted are these: O2 (air), diiron protein, 100 mM HEPES/100 mM NaCl pH 7.0.

Broadly, the Km is the substrate concentration at which the rate is half of its maximum. Take `CC(C)(C)c1cc(O)c(O)c(C(C)(C)C)c1` [3,5-DTBC, 3,5-di-tert-butylcatechol]: the Km on di-Fe^III-DF3 was 2090 ± 310 µM.
For `Nc1ccc(O)cc1` [4-AP, 4-aminophenol], in the series with G4-DFtet, the Michaelis-Menten constant (Km) was 830 ± 60 µM.
Regarding `Nc1ccc(N)cc1` [PPD, p-phenylenediamine], the Km at di-Fe^III-DF3 is 8870 ± 2580 µM.
